Assay results from patent US12594278B2, “Method for treatment of muscular dystrophy” (CHILDREN'S NATIONAL MEDICAL CENTER, priority 2019, dated 2026).

Test system: B6A/J FAPs
Assay: Spontaneous adipogenesis of B6A/J FAPs in culture with batimastat (Oil Red O)
Assay type: cell-based, mouse
Details: 10 μM batimastat from day 3 in culture; 40,000 FAPs from 12Mo B6A/J mice; vs untreated
Protocol: To test this, and to independently confirm the benefit of inhibiting adipogenic differentiation of FAPs for dysferlinopathy, a drug was used to inhibit adipogenic differentiation of FAPs. […] To test the ability of batimastat to prevent the spontaneous adipogenesis of B6A/J FAPs, 40,000 FAPs isolated from 12Mo B6A/J mice were treated with 10 μM batimastat starting from 3 days in culture. Using Oil Red O, the extent of adipogenic differentiation of these FAPs after 14 days in culture was quantified in vitro (FIG. 11A).
Isolation and In Vitro Adipogenesis of FAPs. FAPs were isolated from the hindlimb muscles of 6Mo B6A/J mice in a modified protocol from previously published studies. Mice were euthanized and the tibialis anterior, extensor digitorum longus, gastrocnemius, soleus, quadriceps and psoas were immediately dissected. Non-muscle tissue including tendon, nerve and overlying fascia were carefully removed, and muscles were minced finely in a sterile dish and incubated in Collagenase II (2.5 U/ml, ThermoFisher, #17101015) in PBS for 30 min at 37° C. The resulting slurry was washed with sterile PBS before further digest in Collagenase D (1.5 U/ml, Sigma Aldridge, #COLLD-RO) and Dispase II (2.4 U/ml, Sigma Aldridge, #D4693) in PBS for 60 min at 37° C. […]

Compound: CNC(=O)[C@H](Cc1ccccc1)NC(=O)[C@H](CC(C)C)[C@H](CSc1cccs1)C(=O)NO [batimastat]
- spontaneous adipogenesis of the B6A/J FAPs (Oil Red O): reduced spontaneous adipogenesis
